One test concerns SKLMS40 tumor. Description: In vivo solid tumor disease model, SKLMS40. Set-up: species or system mice. The note with it: Mus musculus, po, SKLMS40, 20 mg/kg orally daily, read-out: Tumor Growth Inhibition (%). An excerpt: (§1) This test measures the capacity of compounds to inhibit solid tumor growth.
(§2) Tumor xenografts are established in the flank of female athymic CD1 mice (Charles River Inc.), by subcutaneous injection of 1×106 U87, A431 or SKLMS cells/mouse. Once established, tumors are then serially passaged s.c. in nude mice hosts. Tumor fragments from these host animals are used in subsequent compound evaluation experiments. For compound evaluation experiments female nude mice weighing approximately 20 g are implanted s.c. by surgical implantation with tumor fragments of ˜30 mg from donor tumors. When the tumors are approximately 100 mm3 in size (˜7-10 days following implantation), the animals are randomized and separated into treatment and control groups. Each group contains 6-8 tumor-bearing mice, each of which is ear-tagged and followed individually throughout the experiment.
(§3) Mice are weighed and tumor measurements are taken by calipers three times weekly, starting on Day 1. These tumor measurements are converted to tumor volume by the well-known formula (L+W/4)3 4/3π. The experiment is terminated when the control tumors reach a size of approximately 1500 mm^3. In this model, the change in mean tumor volume for a compound treated group/the change in mean tumor volume of the control group (non-treated or vehicle treated)×100 (ΔT/ΔC) is subtracted from 100 to give the percent tumor growth inhibition (% TGI) for each test compound. In addition to tumor volumes, body weight of animals is monitored twice weekly for up to 3 weeks.

The next test has as its system U87MG tumor. Description: In vivo solid tumor disease model, U87MG. Set-up: species or system mice. The note with it: Mus musculus, U-87 MG, po, 20 mg/kg orally daily, read-out: Tumor Growth Inhibition (%).
Excerpt: as §1, §2, §3

The subject of the next test is MDAMB231 tumor. Description: In vivo solid tumor disease model, MDAMB231. More on the design: species or system mice. The note with it: MDAMB231, 20 mg/kg orally daily, 13 days.
For a further test, the system named is SKLMS tumor. Description: In vivo solid tumor disease model, SKLMS. Set-up: species or system mice. The note with it: 20 mg/kg orally daily, 15 days.
Excerpt: as §1, §2
Mice are weighed and tumor measurements are taken by calipers three times weekly, starting on Day 1. These tumor measurements are converted to tumor volume by the well-known formula (L+W/4)3 4/3π. The experiment is terminated when the control tumors reach a size of approximately 1500 mm^3. […] In addition to tumor volumes, body weight of animals is monitored twice weekly for up to 3 weeks.

The test system of a further test is Panc-1 tumor. Description: In vivo solid tumor disease model, Panc-1. Set-up: species or system mice. The note with it: Panc-1, 20 mg/kg orally daily, 13 days.
The next test deals with MKN45 tumor. Description: In vivo solid tumor disease model, MKN45. Set-up: species or system mice. The note with it: Mus musculus, MKN-45, po, MKN45, 20 mg/kg orally daily, read-out: Tumor Growth Inhibition (%).
Another test has as its system A549 tumor. Put plainly: In vivo solid tumor disease model, A549. More on the design: species or system mice. The note with it: A549, 20 mg/kg orally daily, 12 days.
The next test concerns MNNG HOS tumor. Description: In vivo solid tumor disease model, MNNG HOS. Set-up: species or system mice. The conditions noted are these: 20 mg/kg orally daily, 6 days.
The next test has as its system HCT116 tumor. Description: In vivo solid tumor disease model, HCT116. The conditions noted are these: HCT116, 20 mg/kg orally daily, 13 days. Set-up: species or system mice.
A further test deals with CNV progression. Description: In vivo choroidal neovascularization (CNV) model, laser-induced. The conditions noted are these: Brown-Norway rats, intravitreal injection 30 and/or 100 nmol/eye on Day 1 and/or Day 3 and/or Day 7, CNV area on Day 10. From the text:
This test measures the capacity of compounds to inhibit CNV progression. CNV is the main cause of severe vision loss in patients suffering from age-related macular degeneration (AMD).
Male Brown-Norway rats (Japan Clea Co., Ltd.) were used in these studies.
Rats were anesthetized by intraperitoneal injection of pentobarbital, and the right pupil was dilated with 0.5% tropicamide and 0.5% phenylephrine hydrochloride. The right eye received 6 laser burns between retinal vessels using a slit lamp delivery system of Green laser Photocoagulator (Nidex Inc., Japan), and microscope slide glass with Heaton™ (AMO Inc) used as a contact lens. The laser power was 100 or 200 mW for 0.1 second and spot diameter was 100 μm. At the time of laser burn, bubble production was observed, which is an indication of rupture of Bruch's membrane which is important for CNV generation.
Rats were divided into the groups based on their body weight using SAS software (SAS institute Japan, R8.1) after laser irradiation (Day 0). After animals were anesthetized, and the right pupil dilated (as above mentioned), the right eye of the animal received the compound or vehicle by intravitreal injection (5 or 10 μL/eye) at doses of 30 and/or 100 nmol/eyeon Day 1 and/or Day 3 and/or Day 7. The compounds were dissolved or suspended in CBS, PBS, or other adequate vehicles before injection.
On Day 10, the animals were anesthetized with ether, and high molecular weight fluorescein isothiocyanate (FITC)-dextran (SIGMA, 2×10^6 MW) was injected via a tail vein (20 mg/rat). About 30 min after FITC-dextran injection, animals were euthanized by ether or carbon dioxide, and the eyes were removed and fixed with 10% formaline neutral buffer solution. After over 1 hour of fixation, RPE-choroid-sclera flat mounts were obtained by removing cornea, lens and retina from the eyeballs. The flat mounts were mounted in 50% glycerol on a microscope slide, and the portion burned by laser was photographed using a fluorescence microscope (Nikon Corporation, excitation filter:465-495 nm, absorption filter:515-555 nm). The CNV area was obtained by measurement of hyper-fluorescence area observed on the photograph using Scion image.
The average CNV area of 6 burns was used as an individual value of CNV area, and the average CNV area of compound treated group was compared with that of the vehicle-treated group. […]

A further test concerns H1437 tumor. Description: In vivo solid tumor disease model, H1437. Set-up: species or system mice. The conditions noted are these: H1437, 15 mg/kg orally daily, 16 days.

SMILES strings stand for the structures. Like-named read-outs stand apart in the source and are kept apart here.

The results in this text go back to US8389541B2, “Inhibitors of protein tyrosine kinase activity” (MethylGene Inc., priority 2007, dated 2013).

Take `COCCNCc1ccc(-c2cc3nccc(Oc4ccc(NC(=O)Nc5cc(C)on5)c(OC)c4)c3s2)nc1`: in the test with SKLMS40 tumor (360 h, 15 days), the inhibition in vivo at 20 mg/kg is not below 75%.

`COCCNCc1ccc(-c2cc3nccc(Oc4ccc(NC(=O)C5(C(=O)Nc6ccc(F)cc6)CC5)cc4F)c3s2)nc1` [drawing 376]: the inhibition in vivo at 20 mg/kg is not below 75% in the test on U87MG tumor (288 h, 12 days) and not below 75% in the test on SKLMS40 tumor (312 h, 13 days). Further, in the test with MDAMB231 tumor, the “Tumor Growth Inhibition (%)” value is reported as “D D D (tumor growth inhibition of ≧75%)”.

As for `COCCNCc1ccc(-c2cc3nccc(Oc4ccc(NC(=O)Nc5coc(C)c5)cc4F)c3s2)nc1`, in the test with U87MG tumor (312 h, 13 days), the inhibition in vivo at 20 mg/kg was not below 75%. Also, the “Tumor Growth Inhibition (%)” value in the test on SKLMS tumor and in the test on Panc-1 tumor was “D D D (tumor growth inhibition of ≧75%)” each time.

In the case of `COCCNCc1ccc(-c2cc3nccc(Oc4ccc(NC(=O)C5(C(=O)Nc6ccc(F)cc6)CC5)cc4F)c3s2)o1`, the “Tumor Growth Inhibition (%)” value with Panc-1 tumor is “D (tumor growth inhibition of ≧75%)”.

Regarding `COCCNCCn1cc(-c2cc3nccc(Oc4ccc(NC(=S)NC(=O)Cc5ccccc5)cc4F)c3s2)cn1` [drawing 367], the inhibition in vivo at 20 mg/kg in the test on U87MG tumor (240 h, 10 days) fell in the range of 25 to 50%.

Turning to `COCCNCc1ccc(-c2cc3nccc(Oc4ccc(NC(=O)C5(C(=O)Nc6ccccc6)CC5)cc4F)c3s2)nc1` [drawing 374], the inhibition in vivo at 20 mg/kg with MKN45 tumor (312 h, 13 days) was not below 75%; in the test on U87MG tumor (288 h, 12 days), not below 75%; with SKLMS40 tumor (312 h, 13 days) it was 50 to 75%. Further, the “Tumor Growth Inhibition (%)” value in the test with A549 tumor was “C (tumor growth inhibition of ≧50% but <75%)”.

As for `COCCNCc1ccc(-c2cc3nccc(Oc4ccc(NC(=O)CC(=O)N(C)c5ccccc5)cc4F)c3s2)nc1` [drawing 373], the inhibition in vivo at 20 mg/kg is 50 to 75% with MKN45 tumor (312 h, 13 days); 25 to 50% in the test with U87MG tumor (288 h, 12 days); less than 25% with SKLMS40 tumor (312 h, 13 days). The “Tumor Growth Inhibition (%)” value in the test with A549 tumor is on record as “C (tumor growth inhibition of ≧50% but <75%)”.

For `CS(=O)(=O)CCNCc1ccc(-c2cc3nccc(Oc4ccc(NC(=O)C5(C(=O)Nc6ccccc6)CC5)cc4F)c3s2)cc1` [drawing 370], in the test on U87MG tumor (240 h, 10 days), the inhibition in vivo at 20 mg/kg lay within 50 to 75%.

Consider `COCCNCc1cccc(-c2cc3nccc(Oc4ccc(NC(=S)NC(=O)Cc5ccc(F)cc5)cc4F)c3s2)c1` [drawing 360], for which the “Tumor Growth Inhibition (%)” value with MNNG HOS tumor is given as “A (tumor growth inhibition of less than 25%)”. Moreover, the inhibition in vivo at 20 mg/kg with MKN45 tumor (168 h, 7 days) was 50 to 75%.

On to `COCCNCCn1cnc(-c2cc3nccc(Oc4ccc(NC(=S)NC(=O)Cc5ccc(F)cc5)cc4F)c3s2)c1` [drawing 366], for which the inhibition in vivo at 20 mg/kg in the test on U87MG tumor (288 h, 12 days) is less than 25%.

On to `COCCNCc1ccc(-c2cc3nccc(Oc4ccc(NC(=O)Nc5cc(C(C)(C)C)on5)cc4F)c3s2)nc1` [drawing 379], for which the “Tumor Growth Inhibition (%)” value in the test with HCT116 tumor is “C (tumor growth inhibition of ≧50% but <75%)”.

For the molecule `COCCNCc1ccc(-c2cc3nccc(Oc4ccc(NC(=O)NNC(=O)c5ccccc5)cc4F)c3s2)nc1`, the “Tumor Growth Inhibition (%)” value in the test with Panc-1 tumor is on record as “A (tumor growth inhibition of less than 25%)”.

On to `COCCNCc1ccc(-c2cc3nccc(Oc4ccc(NC(=S)NC(=O)Cc5ccc(F)cc5)c(OC)c4)c3s2)nc1`, for which the inhibition in vivo at 20 mg/kg in the test with SKLMS40 tumor (360 h, 15 days) lay in the range of 25 to 50%.

In the case of `COCCNCc1ccc(-c2cc3nccc(Oc4ccc(NC(=O)Nc5cc(C(C)(C)C)on5)cc4F)c3s2)nc1` [145(252), 1-(5-tert-butylisoxazol-3-yl)-3-(3-fluoro-4-(2-(5-((2-methoxyethylamino)methyl)pyridin-2-yl)thieno[3,2-b]pyridin-7-yloxy)phenyl)urea], the “% Inhibition of CNV Progression” value with CNV progression is listed as “B (≧10% to <30% inhibition)”.

As for `COCCNCc1ccc(-c2cc3nccc(Oc4ccc(NC(=O)C5(C(=O)Nc6ccc(F)cc6)CC5)c(OC)c4)c3s2)nc1`, the inhibition in vivo at 20 mg/kg in the test on SKLMS40 tumor (360 h, 15 days) fell in the range of 25 to 50%.

Consider `COCCNCc1ccc(-c2cc3nccc(Oc4ccc(NC(=O)CC(=O)N(C)c5ccc(F)cc5)cc4F)c3s2)nc1` [drawing 375], for which the inhibition in vivo at 20 mg/kg with MKN45 tumor (312 h, 13 days) is 25 to 50%. Further, the “Tumor Growth Inhibition (%)” value in the test on A549 tumor is recorded as “A (tumor growth inhibition of less than 25%)”.

Take `COCCNCc1cccc(-c2cc3nccc(Oc4ccc(NC(=O)C5(C(=O)Nc6ccc(F)cc6)CC5)cc4F)c3s2)n1`: the inhibition in vivo at 20 mg/kg in the test on U87MG tumor (312 h, 13 days) is not below 75%.

Consider `COCCNCc1ccc(-c2cc3nccc(Oc4ccc(NC(=S)NC(=O)Cc5ccc(F)cc5)c(F)c4)c3s2)nc1`, for which, in the test with H1437 tumor, the “Tumor Growth Inhibition (%)” value is “A (tumor growth inhibition of less than 25%)”.

For `COCCNCc1cnc(-c2cc3nccc(Oc4ccc(NC(=S)NC(=O)Cc5ccccc5)cc4F)c3s2)n1C` [drawing 371], the inhibition in vivo at 20 mg/kg with MKN45 tumor (312 h, 13 days) was 50 to 75%; in the test on SKLMS40 tumor (312 h, 13 days) it was less than 25%. Moreover, the “Tumor Growth Inhibition (%)” value in the test on A549 tumor was “B (tumor growth inhibition of ≧25% but <50%)”.

For the molecule `COCCNCc1cnc(-c2cc3nccc(Oc4ccc(NC(=O)CC(=O)N(C)c5ccccc5)cc4F)c3s2)n1C` [14(50), N^1-(3-Fluoro-4-(2-(5-((2-methoxyethylamino)methyl)-1-methyl-1H-imidazol-2-yl)thieno[3,2-b]pyridin-7-yloxy)phenyl)-N3-methyl-N^3-phenylmalonamide], the “% Inhibition of CNV Progression” value in the test with CNV progression is “B (≧10% to <30% inhibition)”.

Take `COCCNCc1ccc(-c2cc3nccc(Oc4ccc(NC(=O)C5(C(=O)Nc6ccccc6)CC5)cc4F)c3s2)o1` [drawing 368]: the inhibition in vivo at 20 mg/kg with SKLMS40 tumor (312 h, 13 days) was in the range of 50 to 75%.

On to `CN(C(=O)CC(=O)Nc1ccc(Oc2ccnc3cc(-c4ccc(CNCCS(C)(=O)=O)cc4)sc23)c(F)c1)c1ccccc1` [80(187), N1-(3-fluoro-4-(2-(4-((2-(methylsulfonyl)ethylamino)methyl)phenyl)thieno[3,2-b]pyridin-7-yloxy)phenyl)-N3-methyl-N3-phenylmalonamide], for which the “% Inhibition of CNV Progression” value in the test with CNV progression is recorded as “A (greater than or equal to 30% inhibition)”.

Turning to `COCCNCc1ccc(-c2cc3nccc(Oc4ccc(NC(=O)Nc5cccc(C)c5)cc4F)c3s2)nc1` [161(268), 1-(3-fluoro-4-(2-(5-((2-methoxyethylamino)methyl)pyridin-2-yl)thieno[3,2-b]pyridin-7-yloxy)phenyl)-3-m-tolylurea], the “% Inhibition of CNV Progression” value with CNV progression was “B (≧10% to <30% inhibition)”.

With `COCCNCc1ccc(-c2cc3nccc(Oc4ccc(NC(=O)NC5CC5)cc4F)c3s2)nc1` [170(277), 1-Cyclopropyl-3-(3-fluoro-4-(2-(5-((2-methoxyethylamino)methyl)pyridin-2-yl)thieno[3,2-b]pyridin-7-yloxy)phenyl)urea], the “% Inhibition of CNV Progression” value in the test on CNV progression was “A (greater than or equal to 30% inhibition)”.
